{
  "source": "patent US20230212225A1",
  "about": "“PEPTIDE COMPOSTIONS AND METHODS FOR TREATING TAUOPATHIES” (AXOLTIS PHARMA, priority 2019, published 2023)",
  "key": {"[1]": {"assay": "Pharmacokinetics in human healthy subjects", "format": "in vivo", "conditions": "single IV 10 mg/kg", "description": "As in animals; PK study of NX210 in Human Healthy subjects was conducted following the measurement of its cyclic form NX218."}, "[2]": {"test_system": "Aβ25-35-induced short-term memory deficits", "assay": "Spontaneous alternation performance (Y-maze), treatment started 1 hour after Aβ25-35 injection, tested D08", "format": "in vivo, mice", "conditions": "for Y-maze % (Sc.Aβ / Vhc = 100) / Y-maze Mean, percentage of alternation: D08"}, "[3]": {"assay": "Preliminary in vitro conversion of NX210 in rat plasma", "format": "in vitro ADME"}, "[4]": {"test_system": "hippocampal CA1 pyramidal neurons", "assay": "Histological study, cresyl violet CA1 pyramidal neuron counting, D15", "format": "in vivo, mice", "source_text": "In order to measure neuronal loss in this model (as described by Maurice et al., 2013), a well-known pathological event occurring in patients with AD/Tauopathies, hippocampal neurons were counted in the brain of Sham, Aβ25-35 / vehicle and Aβ25-35 / NX210-treated mice.\nTo do so, fourteen days after ICV injection of Aβ25-35 or Scrambled peptide (D15) and daily compound administrations of NX210 (IP) or vehicle (IP), mice were anaesthetized by ketamine/xylazine and then transcardially perfused with phosphate buffer solution (PBS, 15 ml at 5 ml/min, pH 7.4) until fluid running clear, followed by a solution of 4% paraformaldehyde (PFA, 25 ml at 5 ml/min) until the fixation tremors disappeared. Brains were removed carefully and kept in 4% PFA at 4° C. for 24-48 h. Brains were then dehydrated through a series of graded ethanol baths to displace the water, and then infiltrated with wax. Finally, the infiltrated brains were embedded into wax blocks and sectioned at […]. Cresyl violet (CV) staining was performed on 9 brain sections per animal, each coronal section separated by 100 µm for CA1 pyramidal neuron counting."}, "[5]": {"conditions": "measured as NX218, maximum, N=3"}, "[6]": {"conditions": "measured as NX218, minimum, N=3"}, "[7]": {"conditions": "IP 2 mg/kg every other day (1/2d)"}, "[8]": {"conditions": "IP 3.75 mg/kg every other day (1/2d)"}},
  "note": "Where a SMILES comes first, the peptide text is derived from it.",
  "data": [
    {"compound": "N=C(N)NCCC[C@H](NC(=O)[C@H](CO)NC(=O)[C@H](CS)NC(=O)[C@H](CO)NC(=O)[C@H](CO)NC(=O)[C@H](Cc1c[nH]c2ccccc12)NC(=O)CNC(=O)[C@H](CO)NC(=O)[C@@H](N)Cc1c[nH]c2ccccc12)C(=O)N[C@@H](CO)C(=O)N[C@@H](CS)C(=O)NCC(=O)O", "note": "[NX210, W-S-G-W-S-S-C-S-R-S-C-G] (H-WSGWSSCSRSCG-OH; N-terminus and C-terminus assumed)", "values": [
      {"measurement": "Kel (clearance rate constant), AM", "setting": "[1]; measured as NX218, arithmetic mean, N=3", "value": 0.0348, "unit": "I/min"},
      {"measurement": "Kel (clearance rate constant), GM", "setting": "[1]; measured as NX218, geometric mean, N=3", "value": 0.0347, "unit": "I/min"},
      {"measurement": "AUClast, Max", "setting": "[1]; measured as NX218, maximum", "value": 7850, "unit": "ng·min/mL"},
      {"measurement": "Cmax, Max", "setting": "[1]; measured as NX218, maximum", "value": 1.04, "unit": "µg/mL"},
      {"measurement": "Tmax, Max", "setting": "[1]; measured as NX218, maximum", "value": 12.00, "unit": "min"},
      {"measurement": "AUC∞, Max", "setting": "[1]; [5]", "value": 7920, "unit": "ng·min/mL"},
      {"measurement": "Kel (clearance rate constant), Max", "setting": "[1]; [5]", "value": 0.0372, "unit": "I/min"},
      {"measurement": "t½, Max", "setting": "[1]; [5]", "value": 22.5, "unit": "min"},
      {"measurement": "Kel (clearance rate constant), Median", "setting": "[1]; measured as NX218, median, N=3", "value": 0.0365, "unit": "I/min"},
      {"measurement": "AUClast, Min", "setting": "[1]; measured as NX218, minimum", "value": 1470, "unit": "ng·min/mL"},
      {"measurement": "Cmax, Min", "setting": "[1]; measured as NX218, minimum", "value": 0.185, "unit": "µg/mL"},
      {"measurement": "Tmax", "setting": "[1]; measured as NX218, minimum", "value": 6.00, "unit": "min"},
      {"measurement": "AUC∞, Min", "setting": "[1]; [6]", "value": 2800, "unit": "ng·min/mL"},
      {"measurement": "Kel (clearance rate constant), Min", "setting": "[1]; [6]", "value": 0.0308, "unit": "I/min"},
      {"measurement": "t½", "setting": "[1]; [6]", "value": 18.6, "unit": "min"},
      {"measurement": "effect on spatial short-term working memory deficits (Y-maze), in words", "setting": "[2]; 1, 2 and 3.75 mg/kg IP, once a day or every other day", "value": "significantly rescued"},
      {"measurement": "Y-maze % (Sc.Aβ / Vhc = 100)", "setting": "[2]; IP 0.1 mg/kg once a day", "value": 60, "unit": "%"},
      {"measurement": "Y-maze Mean, percentage of alternation", "setting": "[2]; IP 0.1 mg/kg once a day", "value": 44.52, "unit": "%"},
      {"measurement": "Y-maze % (Sc.Aβ / Vhc = 100)", "setting": "[2]; IP 1 mg/kg once a day", "value": 79, "unit": "%"},
      {"measurement": "Y-maze Mean, percentage of alternation", "setting": "[2]; IP 1 mg/kg once a day", "value": 58.16, "unit": "%"},
      {"measurement": "Y-maze % (Sc.Aβ / Vhc = 100)", "setting": "[2]; [7]", "value": 100, "unit": "%"},
      {"measurement": "Y-maze Mean, percentage of alternation", "setting": "[2]; [7]", "value": 74.35, "unit": "%"},
      {"measurement": "Y-maze % (Sc.Aβ / Vhc = 100)", "setting": "[2]; IP 2 mg/kg once a day", "value": 98, "unit": "%"},
      {"measurement": "Y-maze Mean, percentage of alternation", "setting": "[2]; IP 2 mg/kg once a day", "value": 72.67, "unit": "%"},
      {"measurement": "Y-maze % (Sc.Aβ / Vhc = 100)", "setting": "[2]; [8]", "value": 98, "unit": "%"},
      {"measurement": "Y-maze Mean, percentage of alternation", "setting": "[2]; [8]", "value": 72.62, "unit": "%"},
      {"measurement": "Y-maze % (Sc.Aβ / Vhc = 100)", "setting": "[2]; IP 3.75 mg/kg once a day", "value": 96, "unit": "%"},
      {"measurement": "Y-maze Mean, percentage of alternation", "setting": "[2]; IP 3.75 mg/kg once a day", "value": 70.90, "unit": "%"},
      {"measurement": "restoration of short-term memory to Sham level (Y-maze), in words", "setting": "[2]; NX210 at 2 and 3.75 mg/kg, NX218 at 1, 2 and 3.75 mg/kg", "value": "complete restoration"},
      {"measurement": "effect on Aβ25-35-induced short-term memory deficits (Y-maze) at subactive dose, in words", "setting": "[2]; once a day, NX210 0.1 mg/kg, NX218 0.1 mg/kg, DPZ 0.25 mg/kg", "value": "do not impede"},
      {"measurement": "conversion by oxidation in rat plasma, in words", "setting": "[3]", "value": "rapidly converted into NX218"},
      {"measurement": "effect on neuronal loss in the hippocampus, in words", "setting": "[4]; 2 mg/kg", "value": "significantly prevents"},
      {"measurement": "Histology %, percentage of control (Sc.Aβ / Vhc)", "setting": "[4]; IP 2 mg/kg once a day, D15", "value": 93, "unit": "%"},
      {"measurement": "Histology Mean", "setting": "[4]; IP 2 mg/kg once a day, D15", "value": "311.84 number of neurons per mm of tissue"}
    ]}
  ]
}
